34 compounds from patent US20090054392A1, “NAPHTHYLPYRIMIDINE, NAPHTHYLPYRAZINE AND NAPHTHYLPYRIDAZINE ANALOGS AND THEIR USE AS AGONISTS OF THE WNT-BETA-CATENIN CELLULAR MESSAGING SYSTEM” (Wyeth, priority 2007, published 2009) can be followed below.

pEC50: −log10 of the molar value.

The data set concerns Dkk1-LRP5-TCF-Luciferase. In words: Functional Dkk1-LRP5-TCF-Luciferase Assay in U2OS Cells. Particulars: for fold induction at 2 µM / fold induction at 20 µM / pEC50: Homo sapiens, U2OS; for fold induction at 2 µM: read-out: B = TCF ACTIVITY/DMSO CONTROL Fold induction @ 2.0 uM, 2.0 uM compound; for fold induction at 20 µM: read-out: C = TCF ACTIVITY/DMSO CONTROL Fold induction @ 20.0 uM, 20.0 uM compound; for A = MAX FOLD Induction/DMSO CONTROL: maximum fold induction over DMSO control.

On to `CN(C)S(=O)(=O)N[C@@H]1CCN(c2nccc(-c3ccc4ccccc4c3)n2)C1` [N,N-dimethyl-N′-{(3R)-1-[4-(2-naphthyl)pyrimidin-2-yl]pyrrolidin-3-yl}sulfamide], for which the fold induction at 2 µM is 1.42 and the fold induction at 20 µM worked out at 0.82.

Consider `CN(C)C(=O)N[C@@H]1CCN(c2nccc(-c3ccc4ccccc4c3)n2)C1` [N,N-dimethyl-N′-{(3R)-1-[4-(2-naphthyl)pyrimidin-2-yl]pyrrolidin-3-yl}urea], for which the fold induction at 2 µM stood at 1.79 and the fold induction at 20 µM came to 0.26.

Consider `CN(C)CCN[C@H]1CCN(c2nccc(-c3ccc4ccccc4c3)n2)C1` [N,N-dimethyl-N′-{(3S)-1-[4-(2-naphthyl)pyrimidin-2-yl]pyrrolidin-3-yl}ethane-1,2-diamine], for which the fold induction at 2 µM was 1.5.

Turning to `CN(C)S(=O)(=O)N[C@H]1CCN(c2nccc(-c3ccc4ccccc4c3)n2)C1` [N,N-dimethyl-N′-{(3S)-1-[4-(2-naphthyl)pyrimidin-2-yl]pyrrolidin-3-yl}sulfamide], the fold induction at 2 µM is 1.87.

For the compound `CN(C)C(=O)N[C@H]1CCN(c2nccc(-c3ccc4ccccc4c3)n2)C1` [N,N-dimethyl-N′-{(3S)-1-[4-(2-naphthyl)pyrimidin-2-yl]pyrrolidin-3-yl}urea], the fold induction at 2 µM was determined as 0.94 and the fold induction at 20 µM worked out at 1.65.

For the compound `CCCN(C)CCN(C)[C@@H]1CCN(c2nccc(-c3ccc4ccccc4c3)n2)C1` [N,N′-dimethyl-N-{(3R)-1-[4-(2-naphthyl)pyrimidin-2-yl]pyrrolidin-3-yl}-N′-propylethane-1,2-diamine], the fold induction at 2 µM worked out at 3.4.

In the case of `CNCCN(C)[C@@H]1CCN(c2nccc(-c3ccc4ccccc4c3)n2)C1` [N,N′-dimethyl-N-{(3R)-1-[4-(2-naphthyl)pyrimidin-2-yl]pyrrolidin-3-yl}ethane-1,2-diamine], the fold induction at 2 µM was found to be 1.2.

The pEC50 is the negative decadic logarithm of the EC50, by convention in mol/L. Consider `CC(=O)N1CCC(Nc2nccc(-c3ccc4ccccc4c3)n2)CC1` [N-(1-acetylpiperidin-4-yl)-4-(2-naphthyl)pyrimidin-2-amine], for which the pEC50 is 5.26, the fold induction at 2 µM amounted to 1.09, the fold induction at 20 µM is 2.53 and the “A = MAX FOLD Induction/DMSO CONTROL” value is 2.428 fold.

On to `CC(=O)N1CCC(N(C)c2nccc(-c3ccc4ccccc4c3)n2)CC1` [N-(1-acetylpiperidin-4-yl)-N-methyl-4-(2-naphthyl)pyrimidin-2-amine], for which the fold induction at 2 µM stood at 1.37, the fold induction at 20 µM came to 0.37 and the “A = MAX FOLD Induction/DMSO CONTROL” value worked out at 1.650 fold.

For the compound `O=C(c1ccccc1)N1CCC(Nc2nccc(-c3ccc4ccccc4c3)n2)CC1` [N-(1-benzoylpiperidin-4-yl)-4-(2-naphthyl)pyrimidin-2-amine], the fold induction at 2 µM amounted to 1.95, the fold induction at 20 µM was 0.01 and the “A = MAX FOLD Induction/DMSO CONTROL” value turned out to be 1.490 fold.

As to `CN(c1nccc(-c2ccc3ccccc3c2)n1)C1CCN(C(=O)c2ccccc2)CC1` [N-(1-benzoylpiperidin-4-yl)-N-methyl-4-(2-naphthyl)pyrimidin-2-amine], the fold induction at 2 µM came out at 1.85.

With `CN(c1nccc(-c2ccc3ccccc3c2)n1)C1CCN(Cc2ccccc2)CC1` [N-(1-benzylpiperidin-4-yl)-N-methyl-4-(2-naphthyl)pyrimidin-2-amine], the fold induction at 2 µM was determined as 1.55 and the fold induction at 20 µM came out at 1.24.

Turning to `c1ccc2cc(-c3ccnc(NCCN4CCOCC4)n3)ccc2c1` [N-(2-morpholin-4-ylethyl)-4-(2-naphthyl)pyrimidin-2-amine], the pEC50 is 5.24, the fold induction at 2 µM stood at 2.11, the fold induction at 20 µM is 2.44 and the “A = MAX FOLD Induction/DMSO CONTROL” value turned out to be 1.853 fold.

As for `O=C(NCCC1CCN(c2nccc(-c3ccc4ccccc4c3)n2)CC1)Nc1ccccc1` [N-(2-{1-[4-(2-naphthyl)pyrimidin-2-yl]piperidin-4-yl}ethyl)-N′-phenylurea], the fold induction at 2 µM came to 1 and the fold induction at 20 µM was determined as 1.5.

For the compound `CC(=O)NCCC1CCN(c2nccc(-c3ccc4ccccc4c3)n2)CC1` [N-(2-{1-[4-(2-naphthyl)pyrimidin-2-yl]piperidin-4-yl}ethyl)acetamide], the fold induction at 2 µM was found to be 2.27, the fold induction at 20 µM amounted to 1 and the “A = MAX FOLD Induction/DMSO CONTROL” value was determined as 1.360 fold.

Consider `O=C(NCCC1CCN(c2nccc(-c3ccc4ccccc4c3)n2)CC1)c1ccccc1` [N-(2-{1-[4-(2-naphthyl)pyrimidin-2-yl]piperidin-4-yl}ethyl)benzamide], for which the fold induction at 2 µM amounted to 0.91 and the fold induction at 20 µM was 1.95.

Regarding `CS(=O)(=O)NCCC1CCN(c2nccc(-c3ccc4ccccc4c3)n2)CC1` [N-(2-{1-[4-(2-naphthyl)pyrimidin-2-yl]piperidin-4-yl}ethyl)methanesulfonamide], the “A = MAX FOLD Induction/DMSO CONTROL” value came out at 0.880 fold.

As to `NC(=O)NCCC1CCN(c2nccc(-c3ccc4ccccc4c3)n2)CC1` [N-(2-{1-[4-(2-naphthyl)pyrimidin-2-yl]piperidin-4-yl}ethyl)urea], the “A = MAX FOLD Induction/DMSO CONTROL” value is on record as 1.112 fold.

Consider `N=C(N)OC(=N)NCCN1CCN(c2nccc(-c3ccc4ccccc4c3)n2)CC1` [N-(2-{4-[4-(2-naphthyl)pyrimidin-2-yl]piperazin-1-yl}ethyl)dicarbonimidic diamide], for which the fold induction at 2 µM stood at 1.22 and the fold induction at 20 µM turned out to be 0.49.

Regarding `CS(=O)(=O)NCCN1CCN(c2nccc(-c3ccc4ccccc4c3)n2)CC1` [N-(2-{4-[4-(2-naphthyl)pyrimidin-2-yl]piperazin-1-yl}ethyl)methanesulfonamide], the negative logarithm of the EC50 (pEC50) was 5.27, the fold induction at 2 µM is 1.31, the fold induction at 20 µM turned out to be 1.93 and the “A = MAX FOLD Induction/DMSO CONTROL” value stood at 1.700 fold.

For the compound `c1ccc2cc(-c3ccnc(NCCCN4CCOCC4)n3)ccc2c1` [N-(3-morpholin-4-ylpropyl)-4-(2-naphthyl)pyrimidin-2-amine], the negative-log EC50 (pEC50) was 4.62, the fold induction at 2 µM was found to be 1.68, the fold induction at 20 µM turned out to be 3.27 and the “A = MAX FOLD Induction/DMSO CONTROL” value worked out at 2.120 fold.

As for `COc1ccc(CNc2nccc(-c3ccc4ccccc4c3)n2)cc1` [N-(4-methoxybenzyl)-4-(2-naphthyl)pyrimidin-2-amine], the fold induction at 20 µM came to 1.12.

For `c1ccc2cc(-c3ccnc(NCC4CNC4)n3)ccc2c1` [N-(azetidin-3-ylmethyl)-4-(2-naphthyl)pyrimidin-2-amine], the fold induction at 2 µM worked out at 1.46, the fold induction at 20 µM came to 1.15 and the “A = MAX FOLD Induction/DMSO CONTROL” value is on record as 3.140 fold.

With `CCC(C)Nc1nccc(-c2ccc3ccccc3c2)n1` (stereo not shown) [N-(sec-butyl)-4-(2-naphthyl)pyrimidin-2-amine], the fold induction at 2 µM was determined as 1.01 and the fold induction at 20 µM was determined as 1.34.

Regarding `CC(C)(C)Nc1nccc(-c2ccc3ccccc3c2)n1` [N-(tert-butyl)-4-(2-naphthyl)pyrimidin-2-amine], the fold induction at 2 µM was 1.75.

For `CC(=O)N[C@H]1CC[C@H](Nc2nccc(-c3ccc4ccccc4c3)n2)CC1` [N-(trans-4-{[4-(2-naphthyl)pyrimidin-2-yl]amino}cyclohexyl)acetamide], the pEC50 was 4.72, the fold induction at 2 µM came to 1.9, the fold induction at 20 µM was found to be 3.2 and the “A = MAX FOLD Induction/DMSO CONTROL” value is reported as 3.695 fold.

Regarding `CS(=O)(=O)N[C@H]1CC[C@H](Nc2nccc(-c3ccc4ccccc4c3)n2)CC1` [N-(trans-4-{[4-(2-naphthyl)pyrimidin-2-yl]amino}cyclohexyl)methanesulfonamide], the pEC50 is 5.48, the fold induction at 2 µM was determined as 1.79, the fold induction at 20 µM is 2.38 and the “A = MAX FOLD Induction/DMSO CONTROL” value was determined as 2.940 fold.

Consider `CC(=O)NCC1CN(c2nccc(-c3ccc4ccccc4c3)n2)C1` [N-({1-[4-(2-naphthyl)pyrimidin-2-yl]azetidin-3-yl}methyl)acetamide], for which the fold induction at 2 µM worked out at 0.69 and the fold induction at 20 µM was 1.76.

On to `CS(=O)(=O)NCC1CN(c2nccc(-c3ccc4ccccc4c3)n2)C1` [N-({1-[4-(2-naphthyl)pyrimidin-2-yl]azetidin-3-yl}methyl)methanesulfonamide], for which the fold induction at 2 µM was 1.1 and the fold induction at 20 µM was 1.38.

With `NC(=O)NCC1CN(c2nccc(-c3ccc4ccccc4c3)n2)C1` [N-({1-[4-(2-naphthyl)pyrimidin-2-yl]azetidin-3-yl}methyl)urea], the fold induction at 2 µM came to 1.46 and the fold induction at 20 µM stood at 1.64.

With `CC(=O)NCC1CCN(c2nccc(-c3ccc4ccccc4c3)n2)CC1` [N-({1-[4-(2-naphthyl)pyrimidin-2-yl]piperidin-4-yl}methyl)acetamide], the negative-log EC50 (pEC50) was 5.72, the fold induction at 2 µM was found to be 1.63, the fold induction at 20 µM came out at 2.71 and the “A = MAX FOLD Induction/DMSO CONTROL” value is 2.273 fold. In addition, the “C = TCF ACTIVITY/DMSO CONTROL Fold induction @ 20.0 uM” value (20.0 uM compound, 20 µM) was determined as 2.500 fold.

`O=C(NCC1CCN(c2nccc(-c3ccc4ccccc4c3)n2)CC1)c1ccccc1` [N-({1-[4-(2-naphthyl)pyrimidin-2-yl]piperidin-4-yl}methyl)benzamide]: the fold induction at 2 µM came to 1.69.

For `CCNCC1CCN(c2nccc(-c3ccc4ccccc4c3)n2)CC1` [N-({1-[4-(2-naphthyl)pyrimidin-2-yl]piperidin-4-yl}methyl)ethanamine], the pEC50 is 5.48, the fold induction at 2 µM worked out at 1.33, the fold induction at 20 µM turned out to be 0.01 and the “A = MAX FOLD Induction/DMSO CONTROL” value was determined as 4.200 fold.

On to `N=C(N)NCC1CCN(c2nccc(-c3ccc4ccccc4c3)n2)CC1` [N-({1-[4-(2-naphthyl)pyrimidin-2-yl]piperidin-4-yl}methyl)guanidine], for which the fold induction at 2 µM was 1.27 and the fold induction at 20 µM was 0.02.
